Test results reported in patent US20040023922A1, “Lipids for modulating immune response” (priority 2000, published 2004).
Where “and” joins values, the source holds several entries; their conditions need not be identical. Identical values can stand only once.

Test system: Female Balb/c mice
Experiment: Adjuvanticity of lipids: serum anti-KLH IgA, IgG, IgM ELISA (Example 7)
Format: in vivo
Settings: for Day 7 Results IgA, score as multiples of the control response / Day 7 Results IgG, score as multiples of the control response / Day 7 Results IgM, score as multiples of the control response: serum day 7 after booster; for Day 7 Results IgA, score as multiples of the control response: 5 μl lipid + 45 μl saline + 50 μl KLH (2 mg/ml), week 0 and week 2; for Day 7 Results IgA, score as multiples of the control response / Day 7 Results IgG, score as multiples of the control response / Day 7 Results IgM, score as multiples of the control response / Day 21 Results IgA, score as multiples of the control response / Day 21 Results IgG, score as multiples of the control response / Day 21 Results IgM, score as multiples of the control response: control KLH + Saline = 1; for Day 21 Results IgA, score as multiples of the control response / Day 21 Results IgG, score as multiples of the control response / Day 21 Results IgM, score as multiples of the control response: serum day 21 after booster; for Ranking Total: sum of the six IgA, IgG, IgM scores of day 7 and day 21, control KLH + Saline = 6
Description: The objective of this study was to investigate the adjuvanticity of 19 different lipids.
Female Balb/c mice, 6-8 weeks and weighing about 20-22 gms were used and maintained on a normal mouse diet throughout the study.
There were 22 groups of mice marked alphabetically from A-V. Group A (8 mice) was the negative control (KLH+Saline), Group B (8 mice) was the positive control (KLH+IFA). Groups C-V were the experimental groups containing 6 mice each. 100 μl of antigen preparation comprising of 5 μl lipid+45 μl saline+50 μl (2 mg/ml KLH) was administered to 20 groups of 6 mice each, on week 0 followed by a boost on week 2.
On day 7 and day 21 after the booster dose, the mice were tail bled, the serum separated, aliquoted and stored at 4° C.
The specific anti-KLH IgG and IgM antibody content of each individual serum sample was determined in an established ELISA assay and standardised against a positive control antiserum obtained by hyperimmunisation of mice with KLH (100 μg) in Freund's incomplete adjuvant. Plates were coated with KLH at 2 μg/ml and incubated with four twofold dilutions of samples (100 μl) at 37° C. for 2 hours. The initial dilution of serum samples was 1:50 for IgA assay and 1:100 for IgG and IgM assays. […] IgA and IgM were used at 1:1000 and IgG at 1:2000 for 2 hours at 37° C. The results were expressed as antibody units calculated from the standard curve obtained from pooled immune mouse serum given an arbitrary antibody value of 100,000 IgA units/ml and 1×10^6 IgG and IgM units/ml. The standard curve was diluted from 1:100 to 1:3200 for IgA, 1:4000 to 1:256,000 for IgG and 1:1000 to 1:32000 for IgM samples. The value for each sample dilution falling on standard curve was calculated and the mean taken as the value for the sample.
Results are given in the form of histograms (FIGS. 9 to 14), plotting the Ig response (units/ml) against the trial grouping. […] The number signifies multiples of the control response.

Row | Structure (SMILES) | Day 7 Results IgA, score as multiples of the control response | Day 7 Results IgG, score as multiples of the control response | Day 7 Results IgM, score as multiples of the control response | Day 21 Results IgA, score as multiples of the control response | Day 21 Results IgG, score as multiples of the control response | Day 21 Results IgM, score as multiples of the control response | Ranking Total
1 | CCCCCCCCCCCCCCCCC(=O)OC[C@H](COP(=O)(O)OCCN)OC(=O)CCCCCCCCCCCCCCCC [PEH, L-α-Phosphatidylethanolamine, diheptadecanoyl] | 4 | 12 | 2 | 2 | 7 | 1 | 28
2 | CCCCCCCCCCCCCCCCC(=O)OC[C@H](COP(=O)(O)O)OC(=O)CCCCCCCCCCCCCCCC [PAH, L-α-Phosphatidicacid, diheptadecanoyl] | 5 | 4 | 2 | 2 | 6 | 2 | 21
3 | CCCCCCCCCCCCCCC(=O)OCC(COC(=O)CCCCCCCCCCCCCC)OC(=O)CCCCCCCCCCCCCC [TPeN, Tripentadecanoin] | 11 | 4 | 2 | 3 | 9 | 2 | 31
4 | CCCCCCCCCCCCCCCC(=O)OCC(COP(=O)(O)OC[C@H](N)C(=O)O)OC(=O)CCCCCCCCCCCCCCC (mixture of isomers) [PSP, DL-α-Phosphatidyl-L-serine, dipalmitoyl] | 47 | 2 | 2 | 3 | 14 | 2 | 70
5 | CCCCCCCCCCCCCCCC(=O)N[C@@H](CO[C@@H]1O[C@H](CO)[C@@H](O)[C@H](O)[C@H]1O)[C@H](O)CCCCCCCCCCCCCCC [PC, N-Palmitoyl dihydroglucocerebroside] | 33 | 2 | 3 | 3 | 12 | 3 | 56
6 | CCCCCCCCCCCCCCCC(=O)OCC(COP(=O)(O)OCCN)OC(=O)CCCCCCCCCCCCCCC (racemic) [PEP, DL-α-Phosphatidylethanolamine, dipalmitoyl] | 9 | 8 | 2 | 2 | 17 | 1 | 40 and 39
7 | CCCCCCCCCCCCCC(=O)OCC(COP(=O)([O-])OCC[N+](C)(C)C)OC(=O)CCCCCCCCCCCCC (racemic) [PCM, DL-α-Phosphatidylcholine, dimyristoyl] | 4 | 2 | 1 | 1 | 3 | 1 | 12
8 | CCCCCCCCCCCCCC(=O)OC[C@H](COP(=O)(O)OCCN)OC(=O)CCCCCCCCCCCCC [PEM, L-α-Phosphatidylethanolamine, dimyristoyl] | 17 | 7 | 1 | 2 | 6 | 2 | 35
9 | CCCCCCCCCCCCCCCCCC(=O)OCC(COC(=O)CCCCCCCCCCCCCCC)OC(=O)CCCCCCCCCCCCCCCCC (racemic) [DSP, 1,2 Distearoyl-3-palmitoyl-rac-glycerol] | 15 | 7 | 5 | 3 | 8 | 2 | 39 and 40
10 | CCCCCCCCCCCCCCCCC(=O)OC[C@H](COP(=O)([O-])OCC[N+](C)(C)C)OC(=O)CCCCCCCCCCCCCCCC [PCH, L-α-Phosphatidylcholine, diheptadecanoyl] | 18 | 10 | 1 | 2 | 10 | 2 | 43
11 | CCCCCCCCCCCCCCCCCC(=O)OCC(COP(=O)([O-])OCC[N+](C)(C)C)OC(=O)CCCCCCCCCCCCCCCCC (racemic) [PCS, DL-α-Phosphatidylcholine, distearoyl] | 22 | 8 | 2 | 2 | 13 | 2 | 49
12 | CCCCCCCCCCCCCCC(=O)OC[C@H](COP(=O)([O-])OCC[N+](C)(C)C)OC(=O)CCCCCCCCCCCCCC [PCP, L-α-Phosphatidylcholine, dipentadecanoyl] | 9 | 5 | 2 | 2 | 3 | 1 | 22
13 | CCCCCCCCCCCCCC(=O)OC[C@H](COP(=O)(O)O)OC(=O)CCCCCCCCCCCCC [PAM, L-α-Phosphatidicacid, dimyristoyl] | 4 | 5 | 1 | 1 | 6 | 1 | 18
14 | CCCCCCCCCCCCCCCCCC(=O)OC[C@H](COP(=O)(O)OCCN)OC(=O)CCCCCCCCCCCCCCCCC [PES, L-α-Phosphatidylethanolamine, distearoyl] | 15 | 6 | 1 | 2 | 7 | 1 | 32
